Laboratory results from patent US20200223889A1, “Bicyclic Compounds Capable of Binding to Melanocortin 4 Receptor” (Novo Nordisk A/S, priority 2017, published 2020).
Read-outs that look alike come from different tables or passages of the source. Starred links: 1 amine or outer side, 2 acyl side, 3 side chain; linkers in the order of their positions; H or OH if unused. Positions of bridges follow the written chain, without caps; N, C: chain ends. Non-standard residues stand in square brackets, D forms with d. Residues, ends and D or L forms follow the SMILES beside them. Pen = CC(C)(S)[C@H](N)C(=O)O; d(hCys) = N[C@H](CCS)C(=O)O; Orn = NCCC[C@H](N)C(=O)O; Thz = O=C(O)[C@@H]1CSCN1; X1 = C(CN[*:2])CS[*:1]

What was measured:
[1] = target: T1, human MC4R (Homo sapiens, UniProt P32245); assay: Functional cAMP assay (CisBio HTRF) in BHK cells expressing human MC4R; format: cell-based; details: for MC1R/MC4R cAMP EC50 ratio: MC1R cAMP EC50 divided by MC4R cAMP EC50
T1 construct: expressed in transfected cells
Protocol: In order to assess the potency of the compounds on human MC1R and human MC4R cAMP signalling was measured.
cAMP induction was measured by c-AMPdynamic2 assay, HTRF 62AM4PEC system from CisBio for the human MC1R and human MC4R according to the protocol provided by the vendor. BHK cells expressing the human MC1 or MC4 receptor were generated by stable transfection with expression vectors encoding the cDNA of either MC1R or MC4R.
In details; 25 μl compound—or standard solution were added in the respective wells. Compound was reconstituted in buffer (DMEM w/o phenol red, 10 mM
Hepes, lx Glutamine, 0.1% OV-albumin1, 1 mM IBMX) and serially diluted starting at 2 μM, 10-fold seven times. Dilutions were carried out in the same aforementioned buffer to the desired working concentration ranges (2× higher than the final concentration). 25 μl cell solution was then added and allowed to incubate for 30 min while lightly shaking, at 25° C. […] The provided components for the assay were reconstituted according to the CisBio assay protocol “3.1 supplied reagents and preparation procedure” in MilliQ purification system H2O and diluted 1:20 in lysis buffer. 25 μl cAMP-d2 and 25 μl Cryptate conjugate were added to all wells.
Plates were centrifuged at 1500 rpm for 30 sec and incubated for 1 h, lightly shaking, at 25° C. in a hotel stacker. The plates were read on Mithras LB 940 provided by Berthold Technologies The data were analysed by non-linear regression analysis of binding curves, using the Windows™ program GraphPad™ Prism (GraphPad Software, USA).
The latter is used when no full curve can be obtained in the concentration ranges indicated above.

[2] = target: T1, human MC4R; assay: 125NDP-α-MSH competitive binding to membranes of BHK cells expressing human MC4 receptor (filtration assay); details: human MC4R, BHK cell membranes, 125NDP-α-MSH radioligand; read-out: MC4R binding Ki
Protocol: In Vitro ^125NDP-α-MSH Binding to Recombinant BHK Cells Expressing Human MC4 Receptor (Filtration Assay)
In order to assess the binding affinity of the selected compounds for the human MC4R competitive binding assays was performed with radiolabeled NDP-alpha MSH (^125NDP-α-MSH).
The assay was performed in 96-well filterplates (Unifilter) using BHK cells stably expressing the human MC4 receptor.
The BHK cell membranes were prepared from frozen or fresh cells that were homogenized in 20 mM HEPES pH 7.1, 5 mM MgCl2, 1 mg/ml bacitracin (buffer 1) and centrifuged at 15000 rpm at 4° C., 10 min in a Sorvall RC 5B plus, SS-34 rotor. The supernatant was discarded, and the pellets were re-suspended in buffer 1, homogenized and centrifuged two more times. The final pellets were re-suspended in buffer 1 and the protein concentration was measured and adjusted with buffer 1 to 5 mg/ml and the membrane preparation was kept at −80° C. until assay. The assay was run on a dilution of this cell membrane suspension without any further preparation. The suspension was diluted to give maximally 10% specific binding, i.e. to approx. 50-100 fold dilution, optimized after each membrane preparation. The assay was performed in a total volume of 200 μl: 50 μl of cell suspension, 50 μl of ^125NDP-α-MSH (apx. […] in final concentration), 50 μl of test compound and 50 μl binding buffer were mixed and incubated for 2 h at 25° C. (binding buffer: 25 mM HEPES, pH 7.0, 1 mM CaCl2), 1 mM MgSO4, 1 mM EGTA, 0.005% Tween™ 20 and 0.1% HSA or, alternatively, 0.1% ovalbumin (Sigma; catalogue No. A-5503)). Test compounds were dissolved in 100% DMSO and diluted in binding buffer in a dose range from 1 μM to 0.001 nM. Radiolabelled ligand and membranes were diluted in binding buffer. The incubation was stopped by dilution with 8×100 μl ice-cold 0.9% NaCl. The radioactivity retained on the filters was counted using a Packard Topcounter. The data were analysed by non-linear regression analysis of binding curves, using the Windows™ program GraphPad™ Prism (GraphPad Software, USA).

[3] = BHK cells expressing human MC4R, '>' = highest dose used with no response, read-out: MC4R cAMP EC50

T1 sequence (P32245 whole entry): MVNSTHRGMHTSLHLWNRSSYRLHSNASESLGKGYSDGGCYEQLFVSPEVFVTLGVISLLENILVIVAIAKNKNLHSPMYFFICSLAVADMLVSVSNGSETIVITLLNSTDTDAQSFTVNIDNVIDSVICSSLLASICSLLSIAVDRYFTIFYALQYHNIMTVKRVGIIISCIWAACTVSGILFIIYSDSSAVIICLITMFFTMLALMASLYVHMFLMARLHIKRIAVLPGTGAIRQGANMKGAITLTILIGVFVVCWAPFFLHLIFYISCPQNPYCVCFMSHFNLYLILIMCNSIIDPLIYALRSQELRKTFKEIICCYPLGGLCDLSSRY

| SMILES | EC50 [1, 3] [nM] | MC1R/MC4R cAMP EC50 ratio [1] | Ki [2] [nM] | EC50 [1] [nM] |
| --- | --- | --- | --- | --- |
| N=C(N)NCCC[C@@H]1NC(=O)[C@@H](Cc2ccccc2)NC(=O)[C@H](Cc2c[nH]cn2)NC(=O)CNC(=O)[C@@H]2CSSC[C@H](NC(=O)[C@H](Cc3c[nH]c4ccccc34)NC1=O)C(=O)NCC(=O)N[C@@H](Cc1c[nH]cn1)C(=O)N[C@H](Cc1ccccc1)C(=O)N[C@@H](CCCNC(=N)N)C(=O)N[C@@H](Cc1c[nH]c3ccccc13)C(=O)N2 [Chem. 2, c[c[Cys-Gly-His-D-Phe-Arg-Trp-Cys]- Gly-His-D-Phe-Arg-Trp]] (cyclo(CGH[dF]RWCGH[dF]RW); disulfide 1-7) | 0.01 | 154 | 0.07 |  |
| CC(=O)N[C@@H](C)C(=O)N[C@@H](Cc1c[nH]cn1)C(=O)N[C@H](Cc1ccccc1)C(=O)N[C@@H](CCCNC(=N)N)C(=O)N[C@@H](Cc1c[nH]c2ccccc12)C(=O)N[C@@H]1CCSSCCCNC(=O)[C@H](Cc2c[nH]c3ccccc23)NC(=O)[C@H](CCCNC(=N)N)NC(=O)[C@@H](Cc2ccccc2)NC(=O)[C@H](Cc2c[nH]cn2)NC(=O)[C@H](C)NC1=O [Chem. 3, c[c[HCys-Ala-His-D-Phe-Arg-Trp- HCys]-Ala-His-D-Phe-Arg-Trp]] (Ac-AH[dF]RW[d(hCys)]AH[dF]RW; linker 6-C via X1) | 0.26 | 28 | 0.42 |  |
| CC(=O)N[C@@H](Cc1c[nH]cn1)C(=O)N[C@H](Cc1ccccc1)C(=O)N[C@@H](CCCNC(=N)N)C(=O)N[C@@H](Cc1c[nH]c2ccccc12)C(=O)N[C@H](C)C(=O)N[C@@H]1CCSSCCCNC(=O)[C@@H](C)NC(=O)[C@H](Cc2c[nH]c3ccccc23)NC(=O)[C@H](CCCNC(=N)N)NC(=O)[C@@H](Cc2ccccc2)NC(=O)[C@H](Cc2c[nH]cn2)NC1=O [Chem. 6, c[c[Cys-His-D-Phe-Arg-Trp-D-Ala- Cys]-His-D-Phe-Arg-Trp-D-Ala]] (Ac-H[dF]RW[dA][d(hCys)]H[dF]RW[dA]; linker 6-C via X1) | 0.06 | 39 | 0.19 |  |
| C[C@@H]1NC(=O)[C@H](C)NC(=O)[C@H](Cc2c[nH]c3ccccc23)NC(=O)[C@H](CCCNC(=N)N)NC(=O)[C@@H](Cc2ccccc2)NC(=O)[C@H](Cc2c[nH]cn2)NC(=O)[C@H](C)NC(=O)[C@H](C)NC(=O)[C@H](Cc2c[nH]c3ccccc23)NC(=O)[C@H](CCCNC(=N)N)NC(=O)[C@@H](Cc2ccccc2)NC(=O)[C@H](Cc2c[nH]cn2)NC1=O [Chem. 7, c[Ala-Ala-His-D-Phe-Arg-Trp-Ala-Ala- His-D-Phe-Arg-Trp]] (cyclo(AAH[dF]RWAAH[dF]RW)) | 0.06 | 76 | 0.47 |  |
| C[C@@H]1NC(=O)[C@@H]2CSSC[C@H](NC(=O)[C@H](CCCNC(=N)N)NC(=O)[C@H](Cc3c[nH]c4ccccc34)NC(=O)[C@H](CCCNC(=N)N)NC(=O)[C@@H](Cc3ccccc3)NC(=O)[C@H](Cc3c[nH]cn3)NC1=O)C(=O)N[C@@H](C)C(=O)N[C@@H](Cc1c[nH]cn1)C(=O)N[C@H](Cc1ccccc1)C(=O)N[C@@H](CCCNC(=N)N)C(=O)N[C@@H](Cc1c[nH]c3ccccc13)C(=O)N[C@@H](CCCNC(=N)N)C(=O)N2 [Chem. 69, c[c[Cys-Ala-His-D-Phe-Arg-Trp-Arg- Cys]-Ala-His-D-Phe-Arg-Trp-Arg]] (cyclo(AH[dF]RWRCAH[dF]RWRC); disulfide 7-14) |  | 5 |  |  |
| C[C@@H]1NC(=O)[C@@H]2CSSC[C@H](NC(=O)[C@H](CCCNC(=N)N)NC(=O)[C@H](CCCNC(=N)N)NC(=O)[C@H](CCC(=O)O)NC(=O)[C@H](CCCNC(=N)N)NC1=O)C(=O)N1CSC[C@H]1C(=O)N[C@@H](Cc1c[nH]cn1)C(=O)N[C@H](Cc1ccccc1)C(=O)N[C@@H](Cc1c[nH]cn1)C(=O)N[C@@H](Cc1c[nH]c3ccccc13)C(=O)N2 [Chem. 113, c[c[Cys-THAZ-His-D-Phe-His-Trp- Cys]-Ala-Arg-Glu-Arg-Arg]] (cyclo(ARERRC[Thz]H[dF]HWC); disulfide 6-12) |  | 2112 |  | 0.02 |
| C[C@@H]1NC(=O)[C@H](C)NC(=O)[C@H](CCCN)NC(=O)[C@H](CCCCN)NC(=O)[C@@H]2CSSC[C@H](NC(=O)[C@H](Cc3c[nH]c4ccccc34)NC1=O)C(=O)N1CSC[C@H]1C(=O)N[C@@H](Cc1c[nH]cn1)C(=O)N[C@H](Cc1ccccc1)C(=O)N[C@@H](Cc1c[nH]cn1)C(=O)N[C@@H](Cc1c[nH]c3ccccc13)C(=O)N2 [Chem. 115, c[c[Cys-THAZ-His-D-Phe-His-Trp-C ys]-Lys-Orn-Ala-Ala-Trp]] (cyclo(AAWC[Thz]H[dF]HWCK[Orn]); disulfide 4-10) |  | 1340 |  | 0.1 |
| C[C@@H]1NC(=O)[C@H](C)NC(=O)[C@H](CCCN)NC(=O)[C@H](CCCN)NC(=O)[C@@H]2CSSC[C@H](NC(=O)[C@H](Cc3c[nH]c4ccccc34)NC1=O)C(=O)N1CSC[C@H]1C(=O)N[C@@H](Cc1c[nH]cn1)C(=O)N[C@H](Cc1ccccc1)C(=O)N[C@@H](Cc1c[nH]cn1)C(=O)N[C@@H](Cc1c[nH]c3ccccc13)C(=O)N2 [Chem. 116, c[c[Cys-THAZ-His-D-Phe-His-Trp- Cys]-Orn-Orn-Ala-Ala-Trp]] (cyclo(AAWC[Thz]H[dF]HWC[Orn][Orn]); disulfide 4-10) |  | 1927 |  | 0.12 |
| C[C@@H]1NC(=O)[C@H](C)NC(=O)[C@H](CCCCN)NC(=O)[C@H](CCCCN)NC(=O)[C@H]2NC(=O)[C@H](Cc3c[nH]c4ccccc34)NC(=O)[C@H](Cc3c[nH]cn3)NC(=O)[C@@H](Cc3ccccc3)NC(=O)[C@H](Cc3c[nH]cn3)NC(=O)[C@@H]3CSCN3C(=O)[C@H](CSSC2(C)C)NC(=O)[C@H](Cc2c[nH]c3ccccc23)NC1=O [Chem. 117, c[c[Cys-THAZ-His-D-Phe-His-Trp- Pen]-Lys-Lys-Ala-Ala-Trp]] (cyclo(AAWC[Thz]H[dF]HW[Pen]KK); disulfide 4-10) |  | 841 |  | 0.2 |
| N=C(N)NCCC[C@@H]1NC(=O)[C@H](CCCCN)NC(=O)[C@@H]2CSSC[C@H](NC1=O)C(=O)N1CSC[C@H]1C(=O)N[C@@H](Cc1c[nH]cn1)C(=O)N[C@H](Cc1ccccc1)C(=O)N[C@@H](Cc1c[nH]cn1)C(=O)N[C@@H](Cc1c[nH]c3ccccc13)C(=O)N2 [Chem. 118, c[c[Cys-THAZ-His-D-Phe-His-Trp- Cys]-Lys-Arg]] (cyclo(CKRC[Thz]H[dF]HW); disulfide 1-4) |  | 1240 |  |  |
| C[C@@H]1NC(=O)[C@@H]2CSSC[C@H](NC(=O)[C@H](CCCNC(=N)N)NC(=O)[C@H](CCCN)NC(=O)[C@H](CCC(=O)O)NC(=O)[C@H](CCCN)NC1=O)C(=O)N1CSC[C@H]1C(=O)N[C@@H](Cc1c[nH]cn1)C(=O)N[C@H](Cc1ccccc1)C(=O)N[C@@H](Cc1c[nH]cn1)C(=O)N[C@@H](Cc1c[nH]c3ccccc13)C(=O)N2 [Chem. 119, c[c[Cys-THAZ-His-D-Phe-His-Trp- Cys]-Ala-Orn-Glu-Orn-Arg]] (cyclo(A[Orn]E[Orn]RC[Thz]H[dF]HWC); disulfide 6-12) |  | 1660 |  | 0.06 |
| C[C@@H]1NC(=O)[C@@H]2CSSC[C@H](NC(=O)[C@H](CCCNC(=N)N)NC(=O)[C@@H](CCCCN)NC(=O)[C@@H](CCCCN)NC(=O)[C@H](Cc3c[nH]cn3)NC1=O)C(=O)N1CCC[C@H]1C(=O)N[C@@H](Cc1c[nH]cn1)C(=O)N[C@H](Cc1ccccc1)C(=O)N[C@@H](Cc1c[nH]cn1)C(=O)N[C@@H](Cc1c[nH]c3ccccc13)C(=O)N2 [Chem. 121, c[c[Cys-Pro-His-D-Phe-His-Trp-Cys]- Ala-His-D-Lys-D-Lys-Arg]] (cyclo(AH[dK][dK]RCPH[dF]HWC); disulfide 6-12) | 0.24 | 786 |  |  |
